We go through 21 compounds from patent US6818663B2, “Diaminothiazoles” (Hoffmann-La Roches, priority 2002, dated 2004).

What all share (assay type): biochemical
The target of one assay is human cyclin D1-CDK4 (Homo sapiens, UniProt P11802). Put plainly: FlashPlate kinase assay, cyclin D1-CDK4, Rb substrate. The settings on record: recombinant cyclin D1-CDK4, Rb phosphorylation, 1 μM ATP. The procedure: (§1) To determine inhibition of Cdk4, Cdk2 and Cdk1 activity, kinase assays were conducted using FlashPlate™ assays (NEN™-Life Science Products). FlashPlate assays were performed using recombinant human cyclin B-CDK1, human cyclin E-CDK2 or human cyclin D1-CDK4 complexes. GST-cyclinE (GST-cycE), CDK2, GST-cyclinB (GST-cycB), CDK1, GST-CDK4 and cyclin D1 (cycD1) cDNA clones in baculovirus vectors were provided by Dr. W. Harper at the Baylor College of Medicine, Houston, Tex. Proteins were co-expressed in High Five™ insect cells and the complex was purified on glutathione Sepharose resin (Pharmacia, Piscataway, N.J.) as previously described (Harper, J. W. et al. Cell 1993, 75, 805-816). A 6×-Histidine tagged truncated form of retinoblastoma (Rb) protein (amino acid 386-928) was used as the substrate for the cycD1-CDK4, cycB-CDK1 and the cycE-CDK2 assays (the expression plasmid was provided by Dr. Veronica Sullivan, Department of Molecular Virology, Roche Research Centre, Welwyn Garden City, United Kingdom). The Rb protein is a natural substrate for phosphorylation by CDK4, CDK2 and CDK1 (see Herwig and Strauss Eur. J. Biochem. Vol. 246 (1997) pp. 581-601 and the references cited therein).
Sequence of human cyclin D1-CDK4 (P11802 whole entry): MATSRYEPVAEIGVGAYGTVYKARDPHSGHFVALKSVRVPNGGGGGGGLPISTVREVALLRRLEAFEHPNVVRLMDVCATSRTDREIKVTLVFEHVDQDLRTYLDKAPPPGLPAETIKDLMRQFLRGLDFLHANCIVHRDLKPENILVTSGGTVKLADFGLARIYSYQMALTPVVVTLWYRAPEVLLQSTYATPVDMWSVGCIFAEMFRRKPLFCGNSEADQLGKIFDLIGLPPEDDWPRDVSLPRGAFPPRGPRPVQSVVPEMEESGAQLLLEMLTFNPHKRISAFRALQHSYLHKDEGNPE
Sequence of human cyclin D1-CDK4 (P24385 whole entry partner): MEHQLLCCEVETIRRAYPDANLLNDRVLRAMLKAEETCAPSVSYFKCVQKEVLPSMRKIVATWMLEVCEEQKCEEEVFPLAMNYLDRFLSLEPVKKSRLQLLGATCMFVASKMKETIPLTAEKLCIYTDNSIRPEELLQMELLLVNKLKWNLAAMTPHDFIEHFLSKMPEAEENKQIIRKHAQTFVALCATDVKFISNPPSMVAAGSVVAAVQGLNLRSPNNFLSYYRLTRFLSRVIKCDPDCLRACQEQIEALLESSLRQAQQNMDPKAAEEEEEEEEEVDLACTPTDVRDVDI
(§2) The expression of the 62 Kd protein was under the control of an IPTG inducible promoter in an M15 E. coli strain. Cells were lysed by sonication and purification was carried out by binding lysates at pH 8.0 to a Ni-chelated agarose column pretreated with 1 mM imidazole. The resin was then washed several times with incrementally decreasing pH buffers to pH 6.0, and eluted with 500 mM imidazole. Eluted protein was dialysed against 20 mM HEPES pH 7.5, 30% glycerol, 200 mM NaCl, and 1 mM DTT. Purified Rb fusion protein stocks were quantitated for protein concentration, aliquoted, and stored at −70° C.
(§3) For all three kinase assays reported herein, 96-well FlashPlates were coated with Rb protein at 10 μg/ml, using 100 μl per well. Plates were incubated at 4° C. overnight or at room temperature for 3 hours on a shaker. To control for nonspecific phosphorylation, one row of wells was coated with 100 μl/well coating buffer (20 mM HEPES, 0.2 M NaCl). Plates were then washed twice with wash buffer (0.01% Tween 20 in phosphate-buffered saline). Compounds to be tested (“test compounds”) were added to the wells at 5×final concentration. Reactions were initiated by immediate addition of 40 μl reaction mix (25 mM HEPES, 20 mM MgCl2, 0.002% Tween 20, 2 mM DTT, 1 μM ATP, 4 nM ^33P-ATP) and a sufficient amount of enzyme to give counts that were at least 10-fold above background. Plates were incubated at room temperature on a shaker for 30 minutes. Plates were washed four times with the wash buffer, sealed, and counted on the TopCount scintillation counter (Packard Instrument Co., Downers Grove, Ill.]. The percent inhibition of Rb phosphorylation, which is a measure of the inhibition of CDK activity, was determined according to the following formula: [formula]
(§4) where “test compound” refers to the average counts per minute of the test duplicates, “nonspecific” refers to the average counts per minute when no CyclinD/Cdk4, etc., was added, and “total” refers to the average counts per minute when no compound was added. The IC50 value is the concentration of test compound that reduces by 50% the protein-kinase induced incorporation of the radiolabel under the test conditions described.

The target of a further assay is human cyclin E-CDK2 (Homo sapiens, UniProt P24941). Briefly: FlashPlate kinase assay, cyclin E-CDK2, Rb substrate. As to conditions: recombinant cyclin E-CDK2, Rb phosphorylation, 1 μM ATP. The procedure: as §1, §2, §3, §4
Another assay deals with human cyclin B-CDK1 (Homo sapiens, UniProt P06493). Put plainly: FlashPlate kinase assay, cyclin B-CDK1, Rb substrate. The settings on record: recombinant cyclin B-CDK1, Rb phosphorylation, 1 μM ATP. The procedure:
as §1, §2, §3, §4

pIC50: −log10 of the molar value.

Sequence of human cyclin B-CDK1 (P06493 whole entry): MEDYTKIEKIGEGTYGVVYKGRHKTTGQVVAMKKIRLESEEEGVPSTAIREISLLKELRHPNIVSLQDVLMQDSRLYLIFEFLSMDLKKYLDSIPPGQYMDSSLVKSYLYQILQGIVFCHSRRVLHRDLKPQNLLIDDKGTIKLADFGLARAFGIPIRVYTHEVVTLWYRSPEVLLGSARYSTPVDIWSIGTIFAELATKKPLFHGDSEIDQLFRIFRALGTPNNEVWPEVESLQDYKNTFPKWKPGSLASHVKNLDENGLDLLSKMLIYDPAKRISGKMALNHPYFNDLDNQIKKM
Sequence of human cyclin B-CDK1 (P14635 whole entry partner): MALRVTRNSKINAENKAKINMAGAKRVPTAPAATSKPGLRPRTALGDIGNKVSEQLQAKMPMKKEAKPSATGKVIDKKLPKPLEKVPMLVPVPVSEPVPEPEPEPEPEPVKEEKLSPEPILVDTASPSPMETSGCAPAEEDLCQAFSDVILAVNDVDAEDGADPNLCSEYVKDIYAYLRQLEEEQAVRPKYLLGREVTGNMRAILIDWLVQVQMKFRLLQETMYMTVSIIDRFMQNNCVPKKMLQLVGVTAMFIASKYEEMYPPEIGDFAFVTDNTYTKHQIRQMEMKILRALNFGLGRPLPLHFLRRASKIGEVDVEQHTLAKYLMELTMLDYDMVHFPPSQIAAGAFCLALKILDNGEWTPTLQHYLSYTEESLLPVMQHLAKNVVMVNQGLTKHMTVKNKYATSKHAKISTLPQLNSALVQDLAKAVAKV

A word on the pIC50: it is −log10 of the IC50, conventionally taken in molar units. With `Nc1nc(Nc2ccc(OC[C@@H]3CCCN3)cc2)sc1C(=O)c1cccc(F)c1` [Example 3, [4-Amino-2-[4-(pyrrolidin-2-ylmethoxy)-phenylamino]-thiazol-5-yl]-(3-fluoro-phenyl)-methanone], the values for the negative-log IC50 (pIC50) on human cyclin D1-CDK4, on human cyclin E-CDK2 and at human cyclin B-CDK1 were 7.42, 5.93 and 6.36, respectively.

In the case of `CN(C)C(C)(C)COc1ccc(Nc2nc(N)c(C(=O)c3cccc(F)c3)s2)cc1` [Example 39, [4-Amino-2-[4-(2-dimethylamino-2-methyl-propoxy)-phenylamino]-thiazol-5-yl]-(3-fluoro-phenyl)-methanone], the negative logarithm of the IC50 (pIC50) on human cyclin D1-CDK4 is 7.04; at human cyclin E-CDK2, 6.07; at human cyclin B-CDK1, 6.21.

With `Nc1nc(Nc2ccc(OC3CCCNC3)cc2)sc1C(=O)c1cccc(F)c1` (stereo not drawn) [Example 46, [4-Amino-2-[4-(piperidin-3-yloxy)-phenylamino]-thiazol-5-yl]-(3-fluoro-phenyl)-methanone], the negative-log IC50 (pIC50) at human cyclin D1-CDK4 is 7.19; at human cyclin E-CDK2 it was 5.94; at human cyclin B-CDK1, 6.38.

Regarding `Nc1nc(Nc2ccc(OCCN3CCOCC3)cc2)sc1C(=O)c1cccc(F)c1` [Example 47, [4-Amino-2-[4-(2-morpholin-4-yl-ethoxy)-phenylamino]-thiazol-5-yl]-(3-fluoro-phenyl)-methanone], the figures for the pIC50 on human cyclin D1-CDK4, on human cyclin E-CDK2 and at human cyclin B-CDK1 were 7.14, 5.97 and 6.71, respectively.

Regarding `COc1ccc(C(=O)c2sc(Nc3ccc(OCCN4CCCC4)cc3)nc2N)cc1[N+](=O)[O-]` [Example 48, [4-Amino-2-[4-(2-pyrrolidin-1-yl-ethoxy)-phenylamino]-thiazol-5-yl]-(4-methoxy-3-nitro-phenyl)-methanone], the negative logarithm of the IC50 (pIC50) is 7.07 at human cyclin D1-CDK4, 5.50 on human cyclin E-CDK2 and 5.81 at human cyclin B-CDK1.

Consider `COc1ccc(C(=O)c2sc(Nc3ccc(OCCN(C)C)cc3)nc2N)cc1[N+](=O)[O-]` [Example 49, [4-Amino-2-[4-(2-dimethylamino-ethoxy)-phenylamino]-thiazol-5-yl]-(4-methoxy-3-nitro-phenyl)-methanone], for which the pIC50 is 7.06 on human cyclin D1-CDK4, 5.37 at human cyclin E-CDK2 and 5.62 on human cyclin B-CDK1.

Take `Nc1nc(Nc2ccc(OCCN3CCOCC3)cc2)sc1C(=O)c1ccc2c(c1)OCCO2` [Example 55, [4-Amino-2-[4-(2-morpholin-4-yl-ethoxy)-phenylamino]-thiazol-5-yl]-(2,3-dihydro-benzo[1,4]dioxin-6-yl)-methanone]: the results for the negative-log IC50 (pIC50) on human cyclin D1-CDK4, at human cyclin E-CDK2 and on human cyclin B-CDK1 were 7.07, 5.50 and 6.21, respectively.

On to `Nc1nc(Nc2ccc(OCCN3CCOCC3)cc2)sc1C(=O)c1ccc2c(c1)OCO2` [Example 56, [4-Amino-2-[4-(2-morpholin-4-yl-ethoxy)-phenylamino]-thiazol-5-yl]-benzo[1,3]dioxol-5-yl-methanone], for which the negative logarithm of the IC50 (pIC50) at human cyclin D1-CDK4 is 7.54; at human cyclin E-CDK2 it was 5.52; on human cyclin B-CDK1 it was 6.81.

`CN(C)CCOc1ccc(Nc2nc(N)c(C(=O)c3ccc4c(c3)OCO4)s2)cc1` [Example 59, [4-Amino-2-[4-(2-dimethylamino-ethoxy)-phenylamino]-thiazol-5-yl]-benzo[1,3]dioxol-5-yl-methanone]: the negative logarithm of the IC50 (pIC50) was 7.20 at human cyclin D1-CDK4, 5.25 at human cyclin E-CDK2 and 6.36 on human cyclin B-CDK1.

On to `CN(C)CCOc1ccc(Nc2nc(N)c(C(=O)c3cccc(C#N)c3)s2)cc1` [Example 60, 3-[4-Amino-2-[4-(2-dimethylamino-ethoxy)-phenylamino]-thiazole-5-carbonyl]-benzonitrile], for which the pIC50 is 7.10 on human cyclin D1-CDK4, 5.77 at human cyclin E-CDK2 and 6.07 at human cyclin B-CDK1.

As to `Cc1ccc(C(=O)c2sc(Nc3ccc(OCCN(C)C)cc3)nc2N)cc1F` [Example 73, [4-Amino-2-[4-(2-dimethylamino-ethoxy)-phenylamino]-thiazol-5-yl]-(3-fluoro-4-methyl-phenyl)-methanone], the pIC50 at human cyclin D1-CDK4 is 7.00; at human cyclin E-CDK2, 5.22; at human cyclin B-CDK1, 5.93.

Consider `Cc1ccc(C(=O)c2sc(Nc3ccc(OC[C@@H](C)N(C)C)cc3)nc2N)cc1F` [Example 74, (R)-[4-Amino-2-[4-(2-dimethylamino-propoxy)-phenylamino]-thiazol-5-yl]-(3-fluoro-4-methyl-phenyl)-methanone], for which the values for the pIC50 on human cyclin D1-CDK4, at human cyclin E-CDK2 and at human cyclin B-CDK1 were 7.04, 5.29 and 6.06, respectively.

As to `Cc1ccc(C(=O)c2sc(Nc3ccc(OCC(C)(C)N(C)C)cc3)nc2N)cc1F` [Example 75, [4-Amino-2-[4-(2-dimethylamino-2-methyl-propoxy)-phenylamino]-thiazol-5-yl]-(3-fluoro-4-methyl-phenyl)-methanone], the pIC50 is 7.01 on human cyclin D1-CDK4, 5.37 on human cyclin E-CDK2 and 6.24 on human cyclin B-CDK1.

Consider `CCN1CCCC(Oc2ccc(Nc3nc(N)c(C(=O)c4ccc(O)c(F)c4)s3)cc2)C1` (stereo not drawn) [Example 82, [4-Amino-2-[4-(1-ethyl-piperidin-3-yloxy)-phenylamino]-thiazol-5-yl]-(3-fluoro-4-hydroxy-phenyl)-methanone], for which the figures for the pIC50 at human cyclin D1-CDK4, on human cyclin E-CDK2 and at human cyclin B-CDK1 were 7.15, 5.82 and 5.99, respectively.

Consider `CCN1CCC(Oc2ccc(Nc3nc(N)c(C(=O)c4ccc(C)c(F)c4)s3)cc2)C1` (stereo not drawn) [Example 86, [4-Amino-2-[4-(1-ethyl-pyrrolidin-3-yloxy)-phenylamino]-thiazol-5-yl]-(3-fluoro-4-methyl-phenyl)-methanone], for which the figures for the negative-log IC50 (pIC50) at human cyclin D1-CDK4, on human cyclin E-CDK2 and at human cyclin B-CDK1 were 7.01, 5.78 and 6.01, respectively.

For the compound `CCN1CCCC(Oc2ccc(Nc3nc(N)c(C(=O)c4ccc(C)c(F)c4)s3)cc2)C1` (stereo not drawn) [Example 87, [4-Amino-2-[4-(1-ethyl-piperidin-3-yloxy)-phenylamino]-thiazol-5-yl]-(3-fluoro-4-methyl-phenyl)-methanone], the negative logarithm of the IC50 (pIC50) is 7.13 at human cyclin D1-CDK4, 6.02 on human cyclin E-CDK2 and 6.35 on human cyclin B-CDK1.

As to `CCCc1cc(C(=O)c2sc(Nc3ccc(OC4CCNC4)cc3)nc2N)ccc1O` (stereo not drawn) [Example 90, [4-Amino-2-[4-(pyrrolidin-3-yloxy)-phenylamino]-thiazol-5-yl]-(4-hydroxy-3-propyl-phenyl)-methanone; Compound With Acetic Acid], the pIC50 was 7.37 at human cyclin D1-CDK4, 6.89 at human cyclin E-CDK2 and 6.64 on human cyclin B-CDK1.

On to `Cc1cccc(C(=O)c2sc(Nc3ccc(OC4CCNC4)cc3)nc2N)c1` (stereo not drawn) [Example 91, [4-Amino-2-[4-(pyrrolidin-3-yloxy)-phenylamino]-thiazol-5-yl]-m-tolyl-methanone; Compound With Acetic Acid], for which the figures for the negative-log IC50 (pIC50) at human cyclin D1-CDK4, on human cyclin E-CDK2 and on human cyclin B-CDK1 were 7.17, 6.09 and 6.33, respectively.

For `Cc1ccc(C(=O)c2sc(Nc3ccc(OC4CCNC4)cc3)nc2N)cc1F` (stereo not drawn) [Example 94, [4-Amino-2-[4-(pyrrolidin-3-yloxy)-phenylamino]-thiazol-5-yl]-(3-fluoro-4-methyl-phenyl)-methanone; Compound With Acetic Acid], the pIC50 at human cyclin D1-CDK4 was 7.07; at human cyclin E-CDK2, 5.69; on human cyclin B-CDK1, 6.17.

In the case of `CCN(CC)CCOc1ccc(Nc2nc(N)c(C(=O)c3ccc4c(c3)C(C)CO4)s2)cc1` (stereo not drawn) [Example 139, [4-Amino-2-[4-(2-diethylamino-ethoxy)-phenylamino]-thiazol-5-yl]-(3-methyl-2,3-dihydro-benzofuran-5-yl)-methanone], the negative-log IC50 (pIC50) on human cyclin D1-CDK4 was 7.15.

As for `CCN(CC)CCOc1ccc(Nc2nc(N)c(C(=O)c3ccc4c(c3)CCO4)s2)cc1` [Example 142, [4-Amino-2-[4-(2-diethylamino-ethoxy)-phenylamino]-thiazol-5-yl]-(2,3-dihydro-benzofuran-5-yl)-methanone], the figures for the pIC50 on human cyclin D1-CDK4 and on human cyclin B-CDK1 were 7.00 and 5.19, respectively.
